Experimental data: publication PMC10480161, “Identification of potent and selective N-myristoyltransferase inhibitors of Plasmodium vivax liver stage hypnozoites and schizonts” (Nature Communications, 2023)
Values joined by “and” are separate entries in the source; they are usually repeats but may differ in a detail not shown here. Identical values can stand only once.

What was measured:
[1] = HepG2 cytotoxicity assay (Live/Dead staining); details: human, HepG2 cells
Description: (§1) Therefore, we assessed cytotoxicity in the human hepatoma HepG2 cell line. We required a PvNMT to HsNMT SI > 20 for further screening. HepG2 cells were exposed to the compounds at concentrations ranging from 1 to 20 µM for […], and toxicity was assessed via live-dead staining.
(§2) The viability of the HepG2 cell line following exposure to the compounds was determined by a Live/Dead cell assay kit (Invitrogen). Briefly, cells were added to a 96-well plate at a concentration of 5000 cells per well, excluding the exterior wells. Cells were exposed to the compounds at different concentrations ranging from 1 to 20 µM. Cells were washed every 24 h and supplemented with fresh doses of compounds. At 72 h post-treatment, 1 µM calcein-AM and 1 µM ethidium homodimer were added to the wells and incubated for 10 min at 37 °C. After washing with PBS, the cells were visualized with fluorescent microscopy (Keyence BZ-X700).

HepG2 cells = test: HepG2 cytotoxicity assay (Live/Dead staining); details: replicates
Description: as §1, §2

P. falciparum NF54 = test: P. falciparum blood stage assay (SYBR Green); format: cell-based, Plasmodium falciparum; details: 72 h; for P. falciparum blood-stage development (parasite DNA level fluorescence): untreated = 129; for IC50: Plasmodium falciparum, NF54, ring-stage parasites, relative IC50
Description: To assess whether any of the PvNMTis developed here could qualify as TCP-1 candidates, we assessed the effect of each compound on blood-stage P. falciparum parasites, as there is currently no well-established in vitro platform for screening P. vivax blood-stage parasites. Synchronized P. falciparum NF54 ring-stage parasites were treated for 72 h with each compound at various concentrations, ranging from 0.625 µM to 10 µM, and parasite DNA replication was measured using a fluorescent DNA binding dye (SYBR Green).
Sorbitol-synchronized P. falciparum NF54 ring-stage parasites were cultured at a parasitemia of 0.5% and hematocrit of 1.5% in a 96-well microtiter plate. Parasites were treated with each NMT inhibitor compound at 0.625, 1.25, 2.5, 5, or 10 µM for 72 h. Direct lysis of the blood cells to release the parasite DNA was performed by adding 100 μl of LBS buffer containing SYBR green I DNA binding dye to each well. […] ICEstimator regression analysis (http://www.antimalarial-icestimator.net/) was used to obtain relative IC50 values for each compound.

SMILES | IC50 at 48 h [1] | Percentage of live HepG2 cells compared with diluent controls (HepG2 cells; 1 μM) | Percentage of live HepG2 cells compared with diluent controls (HepG2 cells; 2.5 μM) | Percentage of live HepG2 cells compared with diluent controls (HepG2 cells; 5 μM) | Percentage of live HepG2 cells compared with diluent controls (HepG2 cells; 10 μM) | Percentage of live HepG2 cells compared with diluent controls (HepG2 cells; 20 μM) | P. falciparum blood-stage development (parasite DNA level fluorescence) (P. falciparum NF54; 0.625 uM) | P. falciparum blood-stage development (parasite DNA level fluorescence) (P. falciparum NF54; 1.25 uM) | P. falciparum blood-stage development (parasite DNA level fluorescence) (P. falciparum NF54; 2.5 uM) | P. falciparum blood-stage development (parasite DNA level fluorescence) (P. falciparum NF54; 5 uM) | P. falciparum blood-stage development (parasite DNA level fluorescence) (P. falciparum NF54; 10 uM) | IC50 (P. falciparum NF54)
Cc1n[nH]c(C)c1CCOc1cc(F)ccc1-c1cccc(OCCN(C)C)c1 [Compound 26i] | > 20000 nM | 96.6401% and 97.1078% | 90.0917% | 95.2109% and 86.8435% | 86.5317% and 90.6634% | 79.0479% and 88.1213% | 109.6 | 112.9 | 111.2 | 93.25 | 85.5 | 400 nM
c1cncc(CCOc2ccc3ccccc3c2-c2ccnc(N3CCNCC3)c2)c1 [Compound 30c] | > 20000 nM | 102.591% and 103.526% | 103.812% and 93.9636% | 93.7037% and 93.0801% | 92.5344% and 91.9887% | 79.2818% and 86.3846% | 126.9 | 124 | 114.3 | 101.4 | 93.99 | 680 nM
